From US20250074901A1, “NOVEL HETEROARYL COMPOUNDS” (ICAGEN, LLC, priority 2021, published 2025)

Molecular target: T1, Kv7.2 (Homo sapiens, UniProt O43526)
T1 construct: expressed in transfected cells
Test: Activation of Kv7.2 (in vitro assay, concentration response curve)
Format: cell-based
Settings: for Emax: Kv7.2 activation max %; for EC50: activation of Kv7.2
Protocol: The term “EC50” in this application is defined as: the agonistic effect of a compound can be determined by testing the compound in an in vitro assay as described herein, whereby the effect of the compound is measured across a range of compound concentrations. The resulting data is plotted as a concentration response curve, which typically follows a sigmoidal function, whereby the concentration of the compound is plotted on the x axis and the response (agonistic effect) is plotted on the y axis. The term “EC50” is the “half maximal effective concentration” and denotes the concentration of a particular compound required to obtain 50% of the maximum response (Emax) which is observed for that compound in the given in vitro assay.

SMILES | Emax | EC50
O=C(NCc1ccnc(OC(F)F)c1)N[C@@H]1CCC[C@H](C(F)(F)F)C1 (racemic) [Example 138, 1-[[2-(difluoromethoxy)pyridin-4-yl]methyl]-3-[rac-(1R,3S)-3-(trifluoromethyl)cyclohexyl]urea] | 40% | 100 nM
O=C1CC2CCC(C1)C2NC(=O)NCc1ccnc(OC(F)F)c1 (racemic) [Example 139, 1-[[2-(difluoromethoxy)pyridin-4-yl]methyl]-3-[rac-(1R,5S)-3-oxo-8-bicyclo[3.2.1]octanyl]urea] | 61% | 5250 nM
C[C@]1(O)CCCC[C@@H]1NC(=O)NCc1ccnc(OC(F)F)c1 (racemic) [Example 148, 1-[[2-(difluoromethoxy)pyridin-4-yl]methyl]-3-[rac-(1R,2R)-2-hydroxy-2-methylcyclohexyl]urea] | 64% | 5070 nM
O=C(NCc1ccnc(OCF)c1)N[C@@H]1[C@H]2CCC(F)(F)[C@H]21 (racemic) [Example 176, 1-[[2-(fluoromethoxy)pyridin-4-yl]methyl]-3-[rac-(1R,5S,6R)-2,2-difluoro-6-bicyclo[3.1.0]hexanyl]urea] | 62% | 890 nM
O=C(NCc1ccnc(OC(F)F)c1)N[C@H]1CC[C@](O)(C(F)(F)F)C1 (racemic) [Example 187, 1-[[2-(difluoromethoxy)pyridin-4-yl]methyl]-3-[rac-(1R,3S)-3-hydroxy-3-(trifluoromethyl)cyclopentyl]urea] | 40% | 1140 nM
O=C(NCc1ccnc(OC(F)F)c1)N[C@@H]1CC[C@H](C(F)F)C1 (racemic) [Example 193, 1-[[2-(difluoromethoxy)pyridin-4-yl]methyl]-3-[rac-(1R,3S)-3-(difluoromethyl)cyclopentyl]urea] | 48% | 220 nM
O=C(NCc1ccnc(OC(F)F)c1)NC1CC[C@@H]2CC[C@H]12 (mixture of isomers) [Example 196, 1-[[2-(difluoromethoxy)pyridin-4-yl]methyl]-3-[rac-(1R,5R)-2-bicyclo[3.2.0]heptanyl]urea] | 75% | 70 nM
O=C(NCc1ccnc(OCC(F)CF)c1)N[C@H]1CC[C@@H](C(F)(F)F)C1 (mixture of isomers) [Example 225, 1-[[2-(2,3-difluoropropoxy)pyridin-4-yl]methyl]-3-[rac-(1R,3S)-3-(trifluoromethyl)cyclopentyl]urea] | 52% | 310 nM

The next lines start with the values.

Emax | EC50 | SMILES
60% | 2130 nM | O=C(NCc1ccnc(OC(F)F)c1)N[C@@H]1CCC(F)(F)C[C@H]1O (racemic) [Example 154, 1-[[2-(difluoromethoxy)pyridin-4-yl]methyl]-3-[rac-(1R,2R)-4,4-difluoro-2-hydroxycyclohexyl]urea]
94% | 250 nM | O=C(NCc1ccnc(OC(F)F)c1)NC1C[C@H]2C[C@@H]1CC2(F)F (mixture of isomers) [Example 165, 1-[[2-(difluoromethoxy)pyridin-4-yl]methyl]-3-[rac-(1R,4R)-5,5-difluoro-2-bicyclo[2.2.1]heptanyl]urea]
66% | 460 nM | O=C(NCc1ccnc(OC(F)F)c1)N[C@@H]1[C@H]2CCC(F)(F)[C@H]21 (racemic) [Example 172, 1-[[2-(difluoromethoxy)pyridin-4-yl]methyl]-3-[rac-(1R,5S,6R)-2,2-difluoro-6-bicyclo[3.1.0]hexanyl]urea]
54% | 500 nM | O=C(NCc1ccnc(OC(F)F)c1)NC1C2CCC1CC(F)(F)C2 (racemic) [Example 197, 1-[[2-(difluoromethoxy)pyridin-4-yl]methyl]-3-[rac-(1R,5S)-3,3-difluoro-8-bicyclo[3.2.1]octanyl]urea]
56% | 4270 nM | O=C(NCc1ccnc(OC(F)F)c1)NC1C[C@@H](F)[C@@H](F)C1 (mixture of isomers) [Example 234, 1-[[2-(difluoromethoxy)pyridin-4-yl]methyl]-3-[rac-(3R,4S)-3,4-difluorocyclopentyl]urea]
